Results as given in patent US20080138397A1, “PROCESSES FOR TASTE-MASKING OF INHALED FORMULATIONS” (Aradigm Corporation, priority 2006, published 2008).

Assays:
[1] = oral administration; extensive clearance via first pass metabolism; cited from earlier work
[2] = cited from earlier work
[3] = Human clinical trials of AERx-inhaled HCQ, pharmacokinetics blood sample analysis; assay type: in vivo; conditions: blood samples
Description: Hydroxychloroquine or HCQ, known as a therapeutic for asthma and other respiratory diseases (U.S. Pat. No. 6,572,858), and administered by the inhalation route, is characterized by unpleasant taste. Formulation of HCQ, either singularly, or in combination, using one or more of the methods described above increases the therapeutic benefit of inhaled HCQ to treat asthma and other respiratory diseases. […] Thus, it would be an improvement to develop a formulation that provides a sustained release of HCQ in the lung, prolonging interaction of HCQ with the desired receptors in the lung tissue. Formulation strategies include encapsulation in liposomes or use of polymeric microspheres or nanospheres that slowly degrade and release HCQ. Other formulation strategies outlined previously can also be envisioned for such a formulation.

SMILES	oral bioavailability [1]	half-life ([2]; in vivo)	absorption time ([2]; inhalation delivery)	tolerability ([2]; inhalation delivery)	absorption from the lung [3]
CCCc1cc2c(s1)CN[C@@H]1CCc3cc(OC(C)=O)c(OC(C)=O)cc3[C@@H]21 [ABT-431]	less than 4%	2 to 3 h	less than 10 minutes	poor	–
CCN(CCO)CCCC(C)Nc1ccnc2cc(Cl)ccc12 (centres unmarked) [HCQ, Hydroxychloroquine]	–	–	–	–	rapidly absorbed
